Values joined by “and” are separate entries in the source; they are usually repeats but may differ in a detail not shown here. Identical values can stand only once.

Format in all cases: in vivo
The subject of assay [1] is Leptochloa chinensis (L.) NEES (LEFCH). Kind of assay: Postemergence herbicidal mixtures for weed control in direct seeded rice (greenhouse, visual % injury). The conditions noted are these: for % Injury Ob: LEFCH.
Assay [2] relates to Scirpus maritimus L. (SCPMA). Kind of assay: Herbicidal mixtures for weed control in transplanted paddy rice (in-water application, visual % injury). An outline of the steps:
(§1)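 Paddy flood, greenhouse ~29/26° C; weeds at 2nd–3rd true leaf stage. Herbicide stocks (acetone/2.5% crop oil concentrate) injected into water; solvent blank controls. Visual % injury, 0–100, at 3 weeks.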

Assay [3] relates to Eleocharis kuroguwai OHWI (ELOKU). Described as above. An outline of the steps:
as §1

Consider `COC(=O)c1nc(-c2ccc(Cl)c(OC)c2F)cc(N)c1Cl` [Compound A Methyl, 4-amino-3-chloro-6-(4-chloro-2-fluoro-3-methoxyphenyl)pyridine-2-carboxylic acid methyl ester], for which the “% Injury Ob” value in assay [1] (17.5 g/ha alone) is 75% and 50%; in assay [1] (35 g/ha alone) it was 90%. For the same compound, the “% Injury LEFCH Ob” value in assay [1] (alone 4.38 g/ha) came to 30%; in assay [1] (alone 8.75 g/ha), 40%.

Regarding `COc1c(Cl)ccc(-c2cc(N)c(Cl)c(C(=O)O)n2)c1F` [Compound A TEA, 4-amino-3-chloro-6-(4-chloro-2-fluoro-3-methoxyphenyl)pyridine-2-carboxylic acid], the “% Injury Ob” value in assay [2] (35 g/ha alone) is listed as 0%; in assay [2] (70 g/ha alone), 50%; in assay [3] (35 g/ha alone), 30%; in assay [3] (70 g/ha alone), 20%.

(Values after US10556865B2, “Synergistic herbicidal composition containing certain pyridine or pyrimidine carboxylic acids and certain cereal and rice herbicides” (Dow AgroSciences, LLC, priority 2007, dated 2020).)
